How the values were obtained:
[1] = biological target: GDP-bound NRAS wild-type protein (Homo sapiens, UniProt P01111); test: Binding to NRAS by surface plasmon resonance (SPR), Single Cycle Kinetics; conditions: SPR; KD ratio class
[2] = biological target: GDP-bound HRAS wild-type protein (Homo sapiens, UniProt P01112); test: Binding to HRAS by surface plasmon resonance (SPR), Single Cycle Kinetics; conditions: SPR; KD ratio class
[3] = system: human lung cancer strain NCI-H441; test: cells; conditions: NCI-H441, 96 h, read-out: NCI-H441 IC50 (nM)

Sequence of GDP-bound HRAS wild-type protein (P01112 whole entry): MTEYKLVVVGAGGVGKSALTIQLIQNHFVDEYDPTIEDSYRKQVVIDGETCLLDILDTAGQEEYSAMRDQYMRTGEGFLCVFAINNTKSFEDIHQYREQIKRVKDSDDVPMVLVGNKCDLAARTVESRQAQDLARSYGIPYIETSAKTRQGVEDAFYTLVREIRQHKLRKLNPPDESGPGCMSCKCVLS
Sequence of GDP-bound NRAS wild-type protein (P01111 whole entry): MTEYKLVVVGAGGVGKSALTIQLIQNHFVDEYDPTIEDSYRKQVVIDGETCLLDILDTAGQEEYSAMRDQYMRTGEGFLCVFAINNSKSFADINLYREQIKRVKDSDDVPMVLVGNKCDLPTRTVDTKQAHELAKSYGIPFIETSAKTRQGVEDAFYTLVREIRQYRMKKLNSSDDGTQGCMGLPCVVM

| Compound | IC50 [3] [nM] | NRAS/KRAS (ratio of KD value for GDP-bound NRAS wild-type protein to KD value for KRAS) [1] | HRAS/KRAS (ratio of KD value for GDP-bound HRAS wild-type protein to KD value for KRAS) [2] |
| --- | --- | --- | --- |
| CCC[C@H]1C(=O)N[C@@H]([C@@H](C)CC)C(=O)N(C)CC(=O)N(C)[C@H]2C/C=C\CCN(C2=O)[C@@H](Cc2ccc(C(F)(F)F)cc2)C(=O)N(C)CC(=O)N[C@@H](CCc2ccc3sccc3c2)C(=O)N2C[C@H](OCC)C[C@H]2C(=O)NC2(CCC2)C(=O)N(C)[C@@H](C2CCCC2)C(=O)N(C)[C@H](C(=O)N(C)C)CC(=O)N1C [PP1256] | 69 | A (a compound having 10 or more and less than 20 is denoted as A) | A (a compound having 10 or more and less than 20 is denoted as A) |
| CCO[C@@H]1C[C@H]2C(=O)NC3(CCC3)C(=O)N(C)[C@@H](C3CCCC3)C(=O)N(C)[C@H](C(=O)N(C)C)CC(=O)N(C)[C@@H](CC)C(=O)N[C@@H]([C@@H](C)CC)C(=O)N(C)CC(=O)N(C)[C@H]3C/C=C\CCN(C3=O)[C@@H](Cc3ccc(C(F)(F)F)cc3)C(=O)N(C)CC(=O)N[C@@H](CCc3ccc4sccc4c3)C(=O)N2C1 [PP1255] | 156 | A (a compound having 10 or more and less than 20 is denoted as A) | A (a compound having 10 or more and less than 20 is denoted as A) |
| CCCOC[C@H]1C(=O)N[C@@H]([C@@H](C)CC)C(=O)N(C)CC(=O)N(C)[C@H]2C/C=C\CCN(C2=O)[C@@H](Cc2ccc(C)cc2)C(=O)N(C)CC(=O)N[C@@H](CCc2cc(F)c(C(F)(F)F)c(F)c2)C(=O)N2C[C@H](OCC)C[C@H]2C(=O)NC2(CCCC2)C(=O)N(C)[C@@H](C2CCCC2)C(=O)N(C)[C@H](C(=O)N2CCCC2)CC(=O)N1C [PP1401] | 34.4 | A (a compound having 10 or more and less than 20 is denoted as A) | A (a compound having 10 or more and less than 20 is denoted as A) |
| CCC[C@H]1C(=O)N[C@@H]([C@@H](C)CC)C(=O)N(C)CC(=O)N(C)[C@H]2C/C=C\CCN(C2=O)[C@@H](Cc2ccc(C(F)(F)F)cc2)C(=O)N(C)CC(=O)N[C@@H](CCc2cc(F)c(C(F)(F)F)c(F)c2)C(=O)N2C[C@H](OCC)C[C@H]2C(=O)NC2(CCC2)C(=O)N(C)[C@@H](C2CCCC2)C(=O)N(C)[C@H](C(=O)N2CCOCC2)CC(=O)N1C [PP1288] | 22.2 | AA (a compound having 20 or more is denoted as AA) | A (a compound having 10 or more and less than 20 is denoted as A) |
| CC[C@H](C)[C@@H]1NC(=O)[C@H](CC2CC2)N(C)C(=O)C[C@@H](C(=O)N(C)C)N(C)C(=O)[C@H](C2CCCC2)N(C)C(=O)C2(CCC2)NC(=O)[C@H](CC(F)F)N(C)C(=O)[C@H](CCc2cc(F)c(C(F)(F)F)c(F)c2)NC(=O)CN(C)C(=O)[C@H](Cc2ccc(C(F)(F)F)cc2)N2CC/C=C\C[C@@H](C2=O)N(C)C(=O)CN(C)C1=O [PP1403] | 111 | AA (a compound having 20 or more is denoted as AA) | A (a compound having 10 or more and less than 20 is denoted as A) |
| CCO[C@@H]1C[C@H]2C(=O)NC3(CCC3)C(=O)N(C)[C@@H](C3CCCC3)C(=O)N(C)[C@H](C(=O)N3CCCC3)CC(=O)N(C)[C@@H](CC3CCCC3)C(=O)N[C@@H]([C@@H](C)CC)C(=O)N(C)CC(=O)N(C)[C@H]3C/C=C\CCN(C3=O)[C@@H](Cc3ccc(F)cc3)C(=O)N(C)CC(=O)N[C@@H](CCc3ccc4sccc4c3)C(=O)N2C1 [PP1391] | 271 | A (a compound having 10 or more and less than 20 is denoted as A) | A (a compound having 10 or more and less than 20 is denoted as A) |
| CCO[C@@H]1C[C@H]2C(=O)NC3(CCC3)C(=O)N(C)[C@@H](C(CC)CC)C(=O)N(C)[C@H](C(=O)N(C)C)CC(=O)N(C)[C@@H](CC3CCCC3)C(=O)N[C@@H]([C@@H](C)CC)C(=O)N(C)CC(=O)N(C)[C@H]3C/C=C\CCN(C3=O)[C@@H](Cc3ccc(C(F)(F)F)cc3)C(=O)N(C)CC(=O)N[C@@H](CCc3ccc(C(F)(F)F)c(OC)c3)C(=O)N2C1 [PP1212] | 35.6 | AA (a compound having 20 or more is denoted as AA) | A (a compound having 10 or more and less than 20 is denoted as A) |
| CCO[C@@H]1C[C@H]2C(=O)NC3(CCC3)C(=O)N(C)[C@@H](C3CCCC3)C(=O)N(C)[C@H](C(=O)N(C)C)CC(=O)N(C)[C@@H](CC3CC3)C(=O)N[C@@H]([C@@H](C)CC)C(=O)N(C)CC(=O)N(C)[C@H]3C/C=C\CCN(C3=O)[C@@H](Cc3ccc(F)cc3C)C(=O)N(C)CC(=O)N[C@@H](CCc3ccc(Cl)c(Cl)c3)C(=O)N2C1 [PP1476] | 216 | A (a compound having 10 or more and less than 20 is denoted as A) | B (a compound having 3 or more and less than 10 is denoted as B) |
| CCO[C@@H]1C[C@H]2C(=O)NC3(CCC3)C(=O)N(C)[C@@H](C(CC)CC)C(=O)N(C)[C@H](C(=O)N(C)C)CC(=O)N(C)[C@@H](CC3CC3)C(=O)N[C@@H]([C@@H](C)CC)C(=O)N(C)CC(=O)N(C)[C@H]3C/C=C\CCN(C3=O)[C@@H](Cc3ccc(C(F)(F)F)cc3)C(=O)N(C)CC(=O)N[C@@H](CCc3ccc(Cl)c(Cl)c3)C(=O)N2C1 [PP1219] | 21.4 | AA (a compound having 20 or more is denoted as AA) | A (a compound having 10 or more and less than 20 is denoted as A) |

Compounds with a lower IC50 [3], results first:

| IC50 [3] [nM] | Compound | NRAS/KRAS (ratio of KD value for GDP-bound NRAS wild-type protein to KD value for KRAS) [1] | HRAS/KRAS (ratio of KD value for GDP-bound HRAS wild-type protein to KD value for KRAS) [2] |
| --- | --- | --- | --- |
| 1.8 | CCO[C@@H]1C[C@H]2C(=O)NC3(CC(C)(C)C3)C(=O)N(C)[C@@H](C3CCCC3)C(=O)N(C)[C@H](C(=O)N(C)C)CC(=O)N(C)[C@@H](CC)C(=O)N[C@@H]([C@@H](C)CC)C(=O)N(C)CC(=O)N(C)[C@H]3C/C=C\CCN(C3=O)[C@@H](Cc3ccc(C(F)(F)F)cc3)C(=O)N(C)CC(=O)N[C@@H](CCc3ccc(C(F)(F)F)c(OC)c3)C(=O)N2C1 [PP1559] | A (a compound having 10 or more and less than 20 is denoted as A) | A (a compound having 10 or more and less than 20 is denoted as A) |
| 6.2 | CCO[C@@H]1C[C@H]2C(=O)NC3(CCC3)C(=O)N(C)[C@@H](C3CCCC3)C(=O)N(C)[C@H](C(=O)N3CCOCC3)CC(=O)N(C)[C@@H](CC(C)C)C(=O)N[C@@H]([C@@H](C)CC)C(=O)N3CC[C@H]3C(=O)N(C)[C@H]3C[C@@H](C)[C@@H](C)CN(C3=O)[C@@H](Cc3ccc(C(F)(F)F)cc3)C(=O)N(C)CC(=O)N[C@@H](CCc3ccc(C(F)(F)F)c(Cl)c3)C(=O)N2C1 [PP1361] | A (a compound having 10 or more and less than 20 is denoted as A) | B (a compound having 3 or more and less than 10 is denoted as B) |
| 14.8 | CCO[C@@H]1C[C@H]2C(=O)NC3(CCC3)C(=O)N(C)[C@@H](C3CCCC3)C(=O)N(C)[C@H](C(=O)N(C)C)CC(=O)N(C)[C@@H](CC(C)C)C(=O)N[C@@H]([C@@H](C)CC)C(=O)N(C)CC(=O)N(C)[C@H]3C/C=C\CCN(C3=O)[C@@H](Cc3ccc(F)cc3C)C(=O)N(C)CC(=O)N[C@@H](CCc3cc(F)c(Cl)c(F)c3)C(=O)N2C1 [PP1481] | A (a compound having 10 or more and less than 20 is denoted as A) | B (a compound having 3 or more and less than 10 is denoted as B) |
| 4.6 | CCO[C@@H]1C[C@H]2C(=O)NC3(CCCC3)C(=O)N(C)[C@@H](C3CCCC3)C(=O)N(C)[C@H](C(=O)N(C)C)CC(=O)N(C)[C@@H](CC)C(=O)N[C@@H]([C@@H](C)CC)C(=O)N(C)CC(=O)N(C)[C@H]3C[C@@H](C)[C@@H](C)CN(C3=O)[C@@H](Cc3ccc(C(F)(F)F)cc3)C(=O)N(C)CC(=O)N[C@@H](CCc3cc(F)c(C(F)(F)F)c(F)c3)C(=O)N2C1 [PP1352] | A (a compound having 10 or more and less than 20 is denoted as A) | B (a compound having 3 or more and less than 10 is denoted as B) |
| 18.4 | CCO[C@@H]1C[C@H]2C(=O)NC3(CCC3)C(=O)N(C)[C@@H](C3CCCC3)C(=O)N(C)[C@H](C)CC(=O)N(C)[C@@H](CC(C)C)C(=O)N[C@@H]([C@@H](C)CC)C(=O)N(C)CC(=O)N(C)[C@H]3C/C=C\CCN(C3=O)[C@@H](Cc3ccc(C)cc3)C(=O)N(C)CC(=O)N[C@@H](CCc3cc(F)c(C(F)(F)F)c(F)c3)C(=O)N2C1 [PP1417] | B (a compound having 3 or more and less than 10 is denoted as B) | B (a compound having 3 or more and less than 10 is denoted as B) |
| 2.9 | CC[C@H](C)[C@@H]1NC(=O)[C@H](CC2CC2)N(C)C(=O)C[C@@H](C(=O)N(C)C)N(C)C(=O)[C@H](C2CCCC2)N(C)C(=O)C2(CCCC2)NC(=O)[C@@H]2CCCN2C(=O)[C@H](CCc2cc(F)c(C(F)(F)F)c(F)c2)NC(=O)CN(C)C(=O)[C@H](Cc2ccc(C(F)(F)F)cc2)N2C[C@H](C)[C@H](C)C[C@@H](C2=O)N(C)C(=O)CN(C)C1=O [PP1368] | A (a compound having 10 or more and less than 20 is denoted as A) | B (a compound having 3 or more and less than 10 is denoted as B) |

Source: patent US20250230193A1, “CYCLIC COMPOUND HAVING SELECTIVE KRAS INHIBITORY EFFECT ON HRAS AND NRAS” (CHUGAI SEIYAKU KABUSHIKI KAISHA, priority 2022, published 2025)
